Where two headings read alike, the source gives them in different places.
Assays:
[1] = assay type: physicochemical; conditions: stored at room temperature (21-25° C.)
Method: At each time period, 0.05 g of powder was dissolved in 10 ml-15 of ethanol, diluted to fall within the analytical range, and injected into the LCMSMS for analysis.

[2] = Stability of cannabinoid and Vitamin E components of Beverage 2 (AB Red) stored at 8° C. and 21-25° C., LCMSMS over 570 days

In the case of `Cc1c(C)c2c(c(C)c1OC(=O)CCC(=O)O)CC[C@@](C)(CCC[C@H](C)CCC[C@H](C)CCCC(C)C)O2` [α-Tocopheryl succinate], the “Stability in Powder Concentrate (content by LCMSMS)” value (“Stability in Powder Concentrate” for short) ([1]; day 0) is reported as 1.82 mg/g powder, the “Stability in Powder Concentrate” value ([1]; day 1) is reported as 1.81 mg/g powder and the “Stability in Powder Concentrate” value ([1]; day 2) is reported as 1.81 mg/g powder. For the same compound, the “Stability in Powder Concentrate” value ([1]; day 3) was 1.81 mg/g powder, the “Stability in Powder Concentrate” value ([1]; day 5) was 1.83 mg/g powder and the “Stability in Powder Concentrate” value ([1]; day 8) was 1.90 mg/g powder. For the same compound, the “Stability in Powder Concentrate” value ([1]; day 9) was 1.89 mg/g powder, the “Stability in Powder Concentrate” value ([1]; day 10) was 1.87 mg/g powder and the “Stability in Powder Concentrate” value ([1]; day 11) was 1.89 mg/g powder. The “Stability in Powder Concentrate” value ([1]; day 12) was 1.87 mg/g powder, the “Stability in Powder Concentrate” value ([1]; day 15) was 1.87 mg/g powder and the “Stability in Powder Concentrate” value ([1]; day 16) was 1.83 mg/g powder. The “Stability in Powder Concentrate” value ([1]; day 17) was 1.88 mg/g powder, the “Stability in Powder Concentrate” value ([1]; day 18) was 1.77 mg/g powder and the “Stability in Powder Concentrate” value ([1]; day 19) was 1.85 mg/g powder. For the same compound, the “Stability in Powder Concentrate” value ([1]; day 22) was 1.78 mg/g powder, the “Stability in Powder Concentrate” value ([1]; day 23) was 1.80 mg/g powder and the “Stability in Powder Concentrate” value ([1]; day 24) was 1.90 mg/g powder. The “Stability in Powder Concentrate” value ([1]; day 25) was 1.90 mg/g powder, the “Stability in Powder Concentrate” value ([1]; day 26) was 1.76 mg/g powder and the “Stability in Powder Concentrate” value ([1]; day 29) was 1.87 mg/g powder. The “Stability in Powder Concentrate” value ([1]; day 30) was 1.80 mg/g powder, the “Stability in Powder Concentrate” value ([1]; day 60) was 1.77 mg/g powder and the “Stability in Powder Concentrate” value ([1]; day 90) was 1.83 mg/g powder. The “Stability in Powder Concentrate” value ([1]; day 120) was 1.83 mg/g powder, the “Stability in Powder Concentrate” value ([1]; day 150) was 1.89 mg/g powder and the “Stability in Powder Concentrate” value ([1]; day 180) was 1.77 mg/g powder. For the same compound, the “Stability in Powder Concentrate” value ([1]; day 210) was 1.80 mg/g powder, the “Stability in Powder Concentrate” value ([1]; day 240) was 1.84 mg/g powder and the “Stability in Powder Concentrate” value ([1]; day 270) was 1.87 mg/g powder. For the same compound, the “Stability in Powder Concentrate” value ([1]; day 300) was 1.84 mg/g powder, the “Stability in Powder Concentrate” value ([1]; day 330) was 1.83 mg/g powder and the “Stability in Powder Concentrate” value ([1]; day 360) was 1.79 mg/g powder. For the same compound, the “Stability in Powder Concentrate” value ([1]; day 390) was 1.87 mg/g powder, the “Stability in Powder Concentrate” value ([1]; day 420) was 1.82 mg/g powder and the “Stability in Powder Concentrate” value ([1]; day 450) was 1.80 mg/g powder. The “Stability in Powder Concentrate” value ([1]; day 480) was 1.76 mg/g powder, the “Stability in Powder Concentrate” value ([1]; day 510) was 1.76 mg/g powder and the “Stability in Powder Concentrate” value ([1]; day 540) was 1.80 mg/g powder. For the same compound, the “Stability in Powder Concentrate” value ([1]; day 570) was 1.77 mg/g powder, the “Stability of Vitamin Es in AB Red” value ([2]; 8° C., 0 days) was 12.5 µg/mL and the “Stability of Vitamin Es in AB Red” value ([2]; 8° C., 1 days) was 11.7 µg/mL. For the same compound, the “Stability of Vitamin Es in AB Red” value ([2]; 8° C., 2 days) was 11.7 µg/mL, the “Stability of Vitamin Es in AB Red” value ([2]; 8° C., 3 days) was 11.7 µg/mL and the “Stability of Vitamin Es in AB Red” value ([2]; 8° C., 5 days) was 11.5 µg/mL. The “Stability of Vitamin Es in AB Red” value ([2]; 8° C., 8 days) was 12.6 µg/mL, the “Stability of Vitamin Es in AB Red” value ([2]; 8° C., 9 days) was 11.8 µg/mL and the “Stability of Vitamin Es in AB Red” value ([2]; 8° C., 10 days) was 12.6 µg/mL. For the same compound, the “Stability of Vitamin Es in AB Red” value ([2]; 8° C., 11 days) was 12.1 µg/mL, the “Stability of Vitamin Es in AB Red” value ([2]; 8° C., 12 days) was 12.7 µg/mL and the “Stability of Vitamin Es in AB Red” value ([2]; 8° C., 15 days) was 12.5 µg/mL. For the same compound, the “Stability of Vitamin Es in AB Red” value ([2]; 8° C., 16 days) was 11.5 µg/mL, the “Stability of Vitamin Es in AB Red” value ([2]; 8° C., 17 days) was 12.4 µg/mL and the “Stability of Vitamin Es in AB Red” value ([2]; 8° C., 18 days) was 11.9 µg/mL. The “Stability of Vitamin Es in AB Red” value ([2]; 8° C., 19 days) was 11.7 µg/mL, the “Stability of Vitamin Es in AB Red” value ([2]; 8° C., 22 days) was 11.9 µg/mL and the “Stability of Vitamin Es in AB Red” value ([2]; 8° C., 23 days) was 12.0 µg/mL. The “Stability of Vitamin Es in AB Red” value ([2]; 8° C., 24 days) was 12.2 µg/mL, the “Stability of Vitamin Es in AB Red” value ([2]; 8° C., 25 days) was 12.0 µg/mL and the “Stability of Vitamin Es in AB Red” value ([2]; 8° C., 26 days) was 12.5 µg/mL. For the same compound, the “Stability of Vitamin Es in AB Red” value ([2]; 8° C., 29 days) was 11.6 µg/mL, the “Stability of Vitamin Es in AB Red” value ([2]; 8° C., 30 days) was 12.4 µg/mL and the “Stability of Vitamin Es in AB Red” value ([2]; 8° C., 60 days) was 11.4 µg/mL. For the same compound, the “Stability of Vitamin Es in AB Red” value ([2]; 8° C., 90 days) was 11.5 µg/mL, the “Stability of Vitamin Es in AB Red” value ([2]; 8° C., 120 days) was 12.2 µg/mL and the “Stability of Vitamin Es in AB Red” value ([2]; 8° C., 150 days) was 11.5 µg/mL. For the same compound, the “Stability of Vitamin Es in AB Red” value ([2]; 8° C., 180 days) was 11.4 µg/mL, the “Stability of Vitamin Es in AB Red” value ([2]; 8° C., 210 days) was 11.4 µg/mL and the “Stability of Vitamin Es in AB Red” value ([2]; 8° C., 240 days) was 11.6 µg/mL. For the same compound, the “Stability of Vitamin Es in AB Red” value ([2]; 8° C., 270 days) was 11.5 µg/mL, the “Stability of Vitamin Es in AB Red” value ([2]; 8° C., 300 days) was 11.2 µg/mL and the “Stability of Vitamin Es in AB Red” value ([2]; 8° C., 330 days) was 11.7 µg/mL. For the same compound, the “Stability of Vitamin Es in AB Red” value ([2]; 8° C., 390 days) was 11.2 µg/mL, the “Stability of Vitamin Es in AB Red” value ([2]; 8° C., 420 days) was 11.0 µg/mL and the “Stability of Vitamin Es in AB Red” value ([2]; 8° C., 450 days) was 11.2 µg/mL. For the same compound, the “Stability of Vitamin Es in AB Red” value ([2]; 8° C., 480 days) was 10.9 µg/mL, the “Stability of Vitamin Es in AB Red” value ([2]; 8° C., 510 days) was 10.8 µg/mL and the “Stability of Vitamin Es in AB Red” value ([2]; 8° C., 540 days) was 10.9 µg/mL. The “Stability of Vitamin Es in AB Red” value ([2]; 8° C., 570 days) was 10.6 µg/mL, the “Stability of Vitamin Es in AB Red” value ([2]; 21-25° C., 0 days) was 12.5 µg/mL and the “Stability of Vitamin Es in AB Red” value ([2]; 21-25° C., 1 days) was 12.5 µg/mL. For the same compound, the “Stability of Vitamin Es in AB Red” value ([2]; 21-25° C., 2 days) was 12.0 µg/mL, the “Stability of Vitamin Es in AB Red” value ([2]; 21-25° C., 3 days) was 11.9 µg/mL and the “Stability of Vitamin Es in AB Red” value ([2]; 21-25° C., 5 days) was 11.9 µg/mL. The “Stability of Vitamin Es in AB Red” value ([2]; 21-25° C., 8 days) was 12.0 µg/mL, the “Stability of Vitamin Es in AB Red” value ([2]; 21-25° C., 9 days) was 11.7 µg/mL and the “Stability of Vitamin Es in AB Red” value ([2]; 21-25° C., 10 days) was 12.0 µg/mL. For the same compound, the “Stability of Vitamin Es in AB Red” value ([2]; 21-25° C., 11 days) was 12.0 µg/mL, the “Stability of Vitamin Es in AB Red” value ([2]; 21-25° C., 12 days) was 12.4 µg/mL and the “Stability of Vitamin Es in AB Red” value ([2]; 21-25° C., 15 days) was 11.6 µg/mL. For the same compound, the “Stability of Vitamin Es in AB Red” value ([2]; 21-25° C., 16 days) was 11.6 µg/mL, the “Stability of Vitamin Es in AB Red” value ([2]; 21-25° C., 17 days) was 12.6 µg/mL and the “Stability of Vitamin Es in AB Red” value ([2]; 21-25° C., 18 days) was 12.1 µg/mL. The “Stability of Vitamin Es in AB Red” value ([2]; 21-25° C., 19 days) was 11.9 µg/mL, the “Stability of Vitamin Es in AB Red” value ([2]; 21-25° C., 22 days) was 11.6 µg/mL and the “Stability of Vitamin Es in AB Red” value ([2]; 21-25° C., 23 days) was 12.7 µg/mL. The “Stability of Vitamin Es in AB Red” value ([2]; 21-25° C., 24 days) was 12.4 µg/mL, the “Stability of Vitamin Es in AB Red” value ([2]; 21-25° C., 25 days) was 11.9 µg/mL and the “Stability of Vitamin Es in AB Red” value ([2]; 21-25° C., 26 days) was 12.1 µg/mL. For the same compound, the “Stability of Vitamin Es in AB Red” value ([2]; 21-25° C., 29 days) was 12.4 µg/mL, the “Stability of Vitamin Es in AB Red” value ([2]; 21-25° C., 30 days) was 12.1 µg/mL and the “Stability of Vitamin Es in AB Red” value ([2]; 21-25° C., 60 days) was 11.7 µg/mL. For the same compound, the “Stability of Vitamin Es in AB Red” value ([2]; 21-25° C., 90 days) was 11.6 µg/mL, the “Stability of Vitamin Es in AB Red” value ([2]; 21-25° C., 120 days) was 11.5 µg/mL and the “Stability of Vitamin Es in AB Red” value ([2]; 21-25° C., 150 days) was 11.4 µg/mL. For the same compound, the “Stability of Vitamin Es in AB Red” value ([2]; 21-25° C., 180 days) was 12.3 µg/mL, the “Stability of Vitamin Es in AB Red” value ([2]; 21-25° C., 210 days) was 11.6 µg/mL and the “Stability of Vitamin Es in AB Red” value ([2]; 21-25° C., 240 days) was 11.6 µg/mL. The “Stability of Vitamin Es in AB Red” value ([2]; 21-25° C., 270 days) was 11.0 µg/mL, the “Stability of Vitamin Es in AB Red” value ([2]; 21-25° C., 300 days) was 11.4 µg/mL and the “Stability of Vitamin Es in AB Red” value ([2]; 21-25° C., 330 days) was 11.4 µg/mL. For the same compound, the “Stability of Vitamin Es in AB Red” value ([2]; 21-25° C., 390 days) was 10.8 µg/mL, the “Stability of Vitamin Es in AB Red” value ([2]; 21-25° C., 420 days) was 11.0 µg/mL and the “Stability of Vitamin Es in AB Red” value ([2]; 21-25° C., 450 days) was 11.2 µg/mL. For the same compound, the “Stability of Vitamin Es in AB Red” value ([2]; 21-25° C., 480 days) was 10.4 µg/mL, the “Stability of Vitamin Es in AB Red” value ([2]; 21-25° C., 510 days) was 10.6 µg/mL and the “Stability of Vitamin Es in AB Red” value ([2]; 21-25° C., 540 days) was 10.3 µg/mL. The “Stability of Vitamin Es in AB Red” value ([2]; 21-25° C., 570 days) was 10.6 µg/mL.
